Assay results: patent publication US20180135022A1, “METHOD FOR PRODUCING ARTIFICIAL SYNCYTIOTROPHOBLAST AND PROGENITOR CELL THEREOF” (Sumitomo Chemical Company, Limited, priority 2015, published 2018)
Read-outs that look alike come from different tables or passages of the source.

How the values were obtained:
[1] = tested on: GCM1-GFP knock-in human ES cells; test: Percentage of GFP positive cells (GCM1 gene expression) after differentiation culturing, Example 2; assay type: cell-based; conditions: day 6
Experimental: S26948, GW 1929, CGP 7930 and SR 11237 were dissolved in DMSO so that they were respectively 1 mM, and retinoic acid was dissolved in DMSO so that it was 10 mM, and each DMSO solution was added to Basal differentiation medium A.
On day 6 of the culturing using the differentiation medium, cells were washed twice with PBS (Invitrogen), and fixed with 4% paraformaldehyde (Wako) for 15 minutes. After subjecting the cells to a membrane permeabilizing treatment for 5 minutes by using PBS supplemented with 0.3% Triton X-100 (Wako), the cells were washed three times with PBS. Then after blocking the cells for 1 hour to 2 hours with 3% Bovine Serum Albumin (BSA, Sigma-Aldrich), the cells were immunostained by using 5 μg/ml chicken anti-GFP antibody (Abcam), 2 μg/ml goat anti-chicken IgG antibody Alexa 488 (Life technologies) and 1 μg/ml Hoechst 33342 (DOJINDO). For the obtained stained sample, the percentage of the GFP positive cells indicating expression of GCM1 gene was quantified by using a fully automatic image analyzer Arrayscan (Thermo Scientific).

[2] = tested on: GCM1-GFP knock-in human ES cells; test: Percentage of GFP positive cells at different retinoic acid concentrations, Example 9; assay type: cell-based; conditions: day 5
term placenta = conditions: cited from earlier work
[3] = tested on: cell layer of cells differentiated from KhES-1 cells; conditions: human, 120 min
Experimental: (§1) After two days from the seeding to the cell culture insert, the electric resistance (Ω) of the cell layer formed on the cell culture insert was measured by using a Millicell ERS-2 (Millipore), and from the obtained measurement value, the electric resistance of the blank in which cells are not seeded was subtracted, and the resultant value was multiplied with the area of the membrane filter (cm^2) to determine a transepithelial electric resistance (TEER, Ω·cm^2).
(§2) The culture medium in the insert and in the multiple well plate was replaced by Hanks' Balanced Salt Solution (HBSS) (no phenol red, Life Technologies), and incubated for 30 minutes to 45 minutes at 37° C. 5% CO2. The culture medium in the insert (apical side) is replaced by HBSS containing a test substance, and cultured at 37° C. under stirring at 300 rpm.
(§3) After 120 minutes from addition of the test substance, 100 μl of HBSS containing the permeated test substance was collected from inside the multiple well plate, and the same amount of HBSS was added to the collected HBSS. By quantifying the test substance in the culture medium in the multiple well plate by LC-MS, the permeability of the test substance in the cell layer was evaluated. A value obtained by dividing the permeation amount of each test substance by the permeation amount of antipyrine is shown as an in vitro relative permeation amount in Table 4.

[4] = tested on: cell layer of cells differentiated from 201B7 cells; conditions: human, 120 min
Experimental: (§4) The culture medium in the insert and in the multiple well plate was replaced by Hanks' Balanced Salt Solution (HBSS) (no phenol red, Life Technologies), and incubated for 30 minutes to 45 minutes at 37° C. […] The culture medium in the insert (apical side) is replaced by HBSS containing a test substance, and cultured at 37° C. under stirring at 300 rpm.
(§5) After 120 minutes from addition of the test substance, 100 μl of HBSS containing the test substance was collected from inside the multiple well plate, and the same amount of HBSS was added to the collected HBSS. By quantifying the test substance in the culture medium in the multiple well plate by LC-MS, the permeability of the test substance in the cell layer was evaluated. A value obtained by dividing the permeation amount of each test substance by the permeation amount of antipyrine is shown as an in vitro relative permeation amount in Table 5.

[5] = tested on: cell layer of cells differentiated from 201B7 cells; test: Cell layer permeability test on cell culture insert, cells differentiated from human iPS cells, Example 15; conditions: permeation amount after 120 minutes divided by that of antipyrine; apical side dosing, HBSS, LC-MS; cells from iPS line 201B7
Experimental: as §4, §5

[6] = tested on: cell layer of cells differentiated from KhES-1 cells; test: Cell layer permeability test on cell culture insert, cells differentiated from human ES cells, Example 13; conditions: permeation amount after 120 minutes divided by that of antipyrine; apical side dosing, HBSS, LC-MS; cells from KhES-1
Experimental: as §1, §2, §3

KhES-1 cells = test: Syncytin gene mRNA by real-time PCR after differentiation culturing, Example 3; assay type: cell-based, human; conditions: single agent added to Basal differentiation medium B (0.1 μM S26948, 10 μM GW 1929, 0.1 μM CGP 7930, 10 nM SR 11237 or 1 nM retinoic acid), day 5; in comparison with Control
Experimental: According to the method described in (1) in Example 2, KhES-1 cells were maintenance cultured, and then subjected to the MEF removing operation. […] S26948, GW 1929, CGP 7930 and SR 11237 were dissolved in DMSO so that they were respectively 100 mM, and retinoic acid was dissolved in DMSO so that it was 10 mM, and each DMSO solution was added to Basal differentiation medium B.
On day 5 of the culturing of the culture using the differentiation medium, total RNA was extracted from cells by using RNeasy Micro Kit (QIAGEN). The obtained total RNA was reverse transcribed by using SuperScript III (Invitrogen), and by real-time PCR using the obtained DNA as a template, TaqMan probe (Applied biosystems) and TaqMan Fast advanced master mix (Applied biosystems), the expression amount of Syncytin gene which is a marker gene of syncytiotrophoblast was examined. For the cells obtained in each culturing, the mRNA amount of Syncytin gene and the mRNA amount of GAPDH gene which is a house keeping gene were determined by real-time PCR. The value obtained by dividing the mRNA amount of Syncytin gene by the mRNA amount of GAPDH gene is defined as a correction value of mRNA amount of Syncytin gene, and taking the Syncytin gene mRNA amount correction value in cells cultured in Basal differentiation medium B (Control) as 1, a Syncytin gene mRNA amount correction value in cells cultured in each of other culture media was shown as a relative expression amount. The operation from the cell culturing to measurement of mRNA amount was repeated three times. In FIG. 2, a standard error of relative expression amount is indicated by an error bar. The relative expression amount having a statistically significant difference with respect to the relative expression amount of Control is marked with asterisks (** means a P value of 0.001 or more and less than 0.01, and *** means a P value of less than 0.001). In comparison with the cells cultured in Basal differentiation medium B (Control), the relative expression amount of Syncytin gene increased in cells that were cultured in a differentiation medium supplemented with either of S26948 (2-1) or GW 1929 (2-2) that is a PPARγ agonist, CGP 7930 (2-3) that is a GABABR positive allosteric modulator, SR 11237 (2-4) that is an RXR agonist or retinoic acid (2-5) that is an RAR agonist.

[7] = Table 4, excerpted from Li, H. et al. Arch. Toxicol. 2013
[8] = Table 5, excerpted from Li, H. et al. Arch. Toxicol. 2013
[9] = 1 μM added to Basal differentiation medium A (3 ng/ml BMP4), in comparison with Control A (0.1% DMSO)

| SMILES | Ex vivo relative permeation amount (literature value) (term placenta; [7]) | In vitro relative permeation amount [3] | increase in the percentage of the GFP positive cells [1, 9] | relative expression amount of Syncytin gene (KhES-1 cells) | further results |
| --- | --- | --- | --- | --- | --- |
| CC1=C(/C=C/C(C)=C/C=C/C(C)=C/C(=O)O)C(C)(C)CCC1 [retinoic acid] |  |  |  |  | increase in the percentage of the GFP positive cells ([1]; 1 nM retinoic acid (Table 1 prints 1 μM) in Basal differentiation medium A, compared with Control B (no retinoic acid)): about 6%; increase in the percentage of GFP positive cells ([2]; 1 nM or 10 nM retinoic acid in Basal differentiation medium B, compared with Control without retinoic acid): about 10%; decrease in the percentage of GFP positive cells ([2]; 100 nM or more retinoic acid in Basal differentiation medium B, compared with Control): ≥ 10% |
| Cn1c(=O)c2c(ncn2C)n(C)c1=O [Caffeine] | 1.5 | 1.4 |  |  | Ex vivo relative permeation amount (literature value) (term placenta; [8]): 1.5; In vitro relative permeation amount [4]: 1.1 |
| COc1ccc2c(c1)c(CC(=O)O)c(C)n2C(=O)c1ccc(Cl)cc1 [Indomethacin] | 0.66 |  |  |  | Ex vivo relative permeation amount (literature value) (term placenta; [8]): 0.66; In vitro relative permeation amount [5]: 0.62; In vitro relative permeation amount [6]: 0.72 |
| CC(C)(CO)Cc1cc(C(C)(C)C)c(O)c(C(C)(C)C)c1 [CGP 7930] |  |  | about 20% | increased |  |
| COC(=O)C(Cc1ccc(OCCn2c(=O)sc3cc(C(=O)c4ccccc4)ccc32)cc1)C(=O)OC [S26948] |  |  | about 20% | increased |  |
| C[C@H]1O[C@@H](O[C@H]2[C@@H](O)C[C@H](O[C@H]3[C@@H](O)C[C@H](O[C@H]4CC[C@@]5(C)[C@H](CC[C@@H]6[C@@H]5C[C@@H](O)[C@]5(C)[C@@H](C7=CC(=O)OC7)CC[C@]65O)C4)O[C@@H]3C)O[C@@H]2C)C[C@H](O)[C@@H]1O [Digoxin] | 0.13 | 0.24 |  |  |  |
| CN(CCOc1ccc(C[C@H](Nc2ccccc2C(=O)c2ccccc2)C(=O)O)cc1)c1ccccn1 [GW 1929] |  |  | about 20% | increased |  |
| Cc1cc(=O)n(-c2ccccc2)n1C [Antipyrine] |  | 1 |  |  | Ex vivo relative permeation amount (literature value) (term placenta): 1; In vitro relative permeation amount [4]: 1 |
| CC1(C)CCC(C)(C)c2cc(C3(c4ccc(C(=O)O)cc4)OCCO3)ccc21 [SR 11237] |  |  | about 20% | increased |  |
